The text below walks through data of ChEMBL document CHEMBL4373683, “Dual-target inhibitors of mycobacterial aminoacyl-tRNA synthetases among N-benzylidene-N'-thiazol-2-yl-hydrazines” (Medchemcomm, 2019).

Series [1] deals with T1, Leucine--tRNA ligase (Mycobacterium tuberculosis (strain ATCC 25618 / H37Rv)) (UniProt P9WFV1).
T1 sequence (whole entry): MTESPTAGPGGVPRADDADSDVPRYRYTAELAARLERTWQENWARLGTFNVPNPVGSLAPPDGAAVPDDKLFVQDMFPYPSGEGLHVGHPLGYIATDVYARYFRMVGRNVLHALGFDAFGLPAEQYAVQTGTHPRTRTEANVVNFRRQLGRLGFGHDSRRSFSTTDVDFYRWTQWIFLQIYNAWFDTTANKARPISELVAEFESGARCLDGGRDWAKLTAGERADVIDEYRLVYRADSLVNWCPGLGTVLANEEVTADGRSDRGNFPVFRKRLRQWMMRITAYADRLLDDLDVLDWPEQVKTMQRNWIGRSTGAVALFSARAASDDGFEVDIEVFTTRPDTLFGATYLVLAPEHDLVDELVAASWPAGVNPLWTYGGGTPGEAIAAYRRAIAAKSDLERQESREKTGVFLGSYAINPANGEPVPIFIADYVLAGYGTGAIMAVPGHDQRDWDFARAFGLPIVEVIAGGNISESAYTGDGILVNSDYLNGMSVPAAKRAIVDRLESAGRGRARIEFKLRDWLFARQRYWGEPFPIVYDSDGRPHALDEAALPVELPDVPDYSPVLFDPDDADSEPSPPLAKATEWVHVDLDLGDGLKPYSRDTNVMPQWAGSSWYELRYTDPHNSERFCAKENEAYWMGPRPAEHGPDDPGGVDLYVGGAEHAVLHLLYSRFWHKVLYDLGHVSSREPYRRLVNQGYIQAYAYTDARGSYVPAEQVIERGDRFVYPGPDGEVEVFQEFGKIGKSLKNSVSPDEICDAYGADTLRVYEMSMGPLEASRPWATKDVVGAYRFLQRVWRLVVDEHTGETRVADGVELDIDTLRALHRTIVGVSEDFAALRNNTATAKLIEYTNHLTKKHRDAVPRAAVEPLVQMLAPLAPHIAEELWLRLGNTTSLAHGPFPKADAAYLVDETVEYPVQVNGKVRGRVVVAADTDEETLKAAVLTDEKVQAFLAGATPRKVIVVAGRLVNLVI
Description: Inhibition of Mycobacterium tuberculosis LeuRS expressed in Escherichia coli Rosetta (DE3) cells at 100 uM incubated for 30 mins followed by incubation with ATP, leucine, tRNA, iPPase for 10 mins and measured after 30 mins by BIOMOL Green reagent based plate reader analysis relative to control.

Series [2] concerns Mycobacterium tuberculosis. The format is functional. The settings on record: H37Rv ATCC 27294, 168 h.
The target of another series is T2, Leucine--tRNA ligase (Mycobacterium tuberculosis (strain ATCC 25618 / H37Rv), UniProt P9WFV1).
T2 sequence (P9WFV1 whole entry): T1 sequence (whole entry)
Description: Inhibition of Mycobacterium tuberculosis LeuRS expressed in Escherichia coli Rosetta (DE3) cells incubated for 30 mins followed by incubation with ATP, leucine, tRNA, iPPase for 10 mins and measured after 30 mins by BIOMOL Green reagent based plate reader analysis.

The subject of series [3] is Mycobacterium tuberculosis. The series is classed as functional. The settings on record: H37Rv ATCC 27294, 168 h. This is another data set of the same source.
Series [4] deals with Mycobacterium tuberculosis. The series is classed as functional. The settings on record: H37Rv ATCC 27294, 336 h.
Series [5] is described as follows: Inhibition of recombinant Mycobacterium tuberculosis H37Rv C-terminal His6-tagged MetRS expressed in Escherichia coli BL21 (DE3) Star cells incubated for 30 mins followed by incubation with ATP, methionine, tRNA, iPPase for 10 mins and measured after 30 mins by BIOMOL Green reagent based plate reader analysis. The settings on record: read-out: IC50.
The subject of series [6] is Mycobacterium tuberculosis. The series is classed as functional. The settings on record: H37Rv ATCC 27294, 168 h. This is another data set of the same source.
Series [7] has as its system Mycobacterium tuberculosis. The series is classed as functional. Conditions: H37Rv ATCC 27294, 336 h. This is another data set of the same source.
The test system of series [8] is Mycobacterium tuberculosis. The format is functional. The settings on record: H37Rv ATCC 27294, 168 h. This is another data set of the same source.
For series [9], the system named is Mycobacterium tuberculosis. The format is functional. The settings on record: H37Rv ATCC 27294, 336 h. The source holds these as a separate data set.
Series [10] deals with Mycobacterium tuberculosis H37Rv. The series is described as follows: Inhibition of recombinant Mycobacterium tuberculosis H37Rv C-terminal His6-tagged MetRS expressed in Escherichia coli BL21 (DE3) Star cells at 100 uM incubated for 30 mins followed by incubation with ATP, methionine, tRNA, iPPase for 10 mins and measured after 30 mins by BIOMOL Green reagent based plate reader analysis relative to control.

The test system of series [11] is Mycobacterium tuberculosis. The format is functional. The settings on record: H37Rv ATCC 27294, 336 h. The source holds these as a separate data set.
The nature of series [12]: Cytotoxicity against human HepG2 cells assessed as reduction in cell viability incubated for 72 hrs by MTT assay. The format is cell-based.
A short description of series [13]: Cytotoxicity against human HEK293 cells assessed as reduction in cell viability incubated for 72 hrs by MTT assay. The format is cell-based. A general note: Formazan colour is commonly taken as a measure of viable cells.

SMILES strings stand for the structures. Values after ≈ are worked out from the molar mass of the structure shown.

On to `O=[N+]([O-])c1cccc(-c2csc(N/N=C/c3ccccc3Br)n2)c1`, for which the inhibition in [1] is 80%; in [10] it was 93%. The MIC in [2] was 37 µM (≈ 14.9 µg/mL); in [3], 37 µM (≈ 14.9 µg/mL); in series [4] it was more than 50 µM; in series [6] it was more than 50 µM; in series [7] it was more than 50 µM; in series [8], not below 50 µM. For the same compound, the MIC was 50 µM (≈ 20.2 µg/mL) in [9] and more than 50 µM in series [11]. Besides, the IC50 at Leucine--tRNA ligase was 8.9 µM; in series [5], 6.5 µM.

For the compound `COc1ccc(/C=N/Nc2nc(-c3ccc(F)cc3)cs2)cc1Br`, the CC50 at 72 h in [12] and in [13] was more than 100 µM throughout. Also, the results for the inhibition in [1] and in series [10] were 109% and 121%, respectively. In addition, the minimal inhibitory concentration (MIC) in series [2] is 0.78 µM (≈ 0.317 µg/mL); in series [3], 9.4 µM (≈ 3.82 µg/mL); in [4] it was 2.3 µM (≈ 0.934 µg/mL); in series [6], 1.56 µM (≈ 0.634 µg/mL); in [7] it was 2.3 µM (≈ 0.934 µg/mL); in series [8], 19 µM (≈ 7.72 µg/mL). The MIC in series [9] was determined as 25 µM (≈ 10.2 µg/mL); in [11], 37 µM (≈ 15 µg/mL). The half-maximal inhibitory concentration (IC50) at Leucine--tRNA ligase was 12.5 µM; in series [5], 10.7 µM.

By inhibition is commonly meant the drop in the measured response relative to a control, in per cent. The term MIC denotes the lowest concentration found to suppress growth. A word on the IC50: it is the concentration at which inhibition is half-maximal. For orientation: CC50 means the concentration that lowers cell viability or growth by half.
